The source of these data is article PMC4008379, “Bioenergetics and Gene Silencing Approaches for Unraveling Nucleotide Recognition by the Human EIF2C2/Ago2 PAZ Domain” (PLoS ONE, 2014).

Like-named read-outs stand apart in the source and are kept apart here.

Holding throughout (assay type): binding
In test [1] the target is T1, EIF2C2/Ago2 PAZ domain (Ago2PAZ) (Homo sapiens, UniProt Q9UKV8).
T1 construct: PAZ domain, residues 226-379, hexahistidine tag (pQE30, BamHI/HindIII), tag removal not mentioned; expressed in E. coli; Talon and Sephacryl S200HR
T1 sequence (Q9UKV8 227-379): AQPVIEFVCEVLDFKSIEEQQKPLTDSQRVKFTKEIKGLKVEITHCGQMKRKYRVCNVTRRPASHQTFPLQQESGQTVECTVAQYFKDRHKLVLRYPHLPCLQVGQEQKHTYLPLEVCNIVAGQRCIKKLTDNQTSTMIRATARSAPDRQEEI
As to the kind of experiment: isothermal titration calorimetry.

Test [2] has as its target T1, EIF2C2/Ago2 PAZ domain (Ago2PAZ). As to the kind of experiment: ITC displacement (UMP titrated into AMP-saturated protein). The note with it: 25 mM potassium phosphate pH 7; 12°C; competition with UMP; unreliable (estimated, direct titration ND). The source says: ITC displacement (UMP titrated into AMP-saturated protein) on EIF2C2/Ago2 PAZ domain (Ago2PAZ)
Test [3] has the same target. As to the kind of experiment: ITC displacement (UMP titrated into dCMP-saturated protein). The note with it: 25 mM potassium phosphate pH 7; 12°C; competition with UMP; unreliable (estimated, direct titration ND). The source says: ITC displacement (UMP titrated into dCMP-saturated protein) on EIF2C2/Ago2 PAZ domain (Ago2PAZ)
Test [4] has the same target. As to the kind of experiment: ITC displacement (UMP titrated into dAMP-saturated protein). The note with it: 25 mM potassium phosphate pH 7; 12°C; competition with UMP; unreliable (estimated, direct titration ND). The source says: ITC displacement (UMP titrated into dAMP-saturated protein) on EIF2C2/Ago2 PAZ domain (Ago2PAZ)

Turning to `Cc1cn([C@@H]2O[C@H](COP(=O)(O)O)[C@@H](O)[C@H]2O)c(=O)[nH]c1=O` [compound 2, 5-Methyluridine-5′-O-monophosphate], in test [1] (read-out: Ka (converted)), the Kd was 58.8 µM. As to `Nc1ncnc2c1ncn2[C@@H]1O[C@H](COP(=O)(O)O)[C@@H](O)[C@H]1O` [AMP], the “Estimated KB / M^-1” value in test [2] is 143 M⁻¹.

On to `O=c1ccn([C@@H]2O[C@H](COP(=O)(O)O)[C@@H](O)[C@H]2O)c(=O)[nH]1` [UMP], for which the Kd in test [1] (25 mM potassium phosphate pH 7, one-set-of-sites model, fitted n 2.2, read-out: Kd /) stood at 15 µM. Regarding `Nc1nc2c(ncn2[C@@H]2O[C@H](COP(=O)(O)O)[C@@H](O)[C@H]2O)c(=O)[nH]1` [GMP], the Kd in test [1] (read-out: Kd /) amounted to 22 µM. Take `Nc1ccn([C@H]2C[C@H](O)[C@@H](COP(=O)(O)O)O2)c(=O)n1` [dCMP]: the “Estimated KB / M^-1” value in test [3] is 155 M⁻¹. `Nc1ccn([C@@H]2O[C@H](COP(=O)(O)O)[C@@H](O)[C@H]2O)c(=O)n1` [CMP]: the Kd in test [1] (read-out: Kd /) was determined as 40 µM. On the same count and under the same terms, the same measure for `Cc1cn([C@H]2C[C@H](O)[C@@H](COP(=O)(O)O)O2)c(=O)[nH]c1=O` [TMP]: 232 µM.

Consider `Nc1nc2c(ncn2[C@H]2C[C@H](O)[C@@H](COP(=O)(O)O)O2)c(=O)[nH]1` [dGMP], for which the Kd in test [1] (read-out: Kd /) was 40 µM.

On to `Nc1ncnc2c1ncn2[C@H]1C[C@H](O)[C@@H](COP(=O)(O)O)O1` [dAMP], for which, in test [4], the “Estimated KB / M^-1” value is 72 M⁻¹.
